From PMC9814635 (Communications Chemistry, 2022)

Tests used:
[1] = test system: FGFR1; settings: printed as potency 'toward FGFRs' in the FGFR1 comparison; cited from earlier work
[2] = test system: FGFR4-translocated Ba/F3 cells; experiment: cells; settings: Mus musculus, BaF3, 72 h, read-out: IC50 proliferation, FGFR4 Ba/F3 cells
Protocol: (§1) Cell proliferation and viability were evaluated in parental Ba/F3 cells and TEL-FGFR1-4/FGFR mutation-translocated Ba/F3 cell lines.

[3] = test system: parental Ba/F3 cells; experiment: cells; settings: Mus musculus, BaF3, 72 h, read-out: IC50 proliferation, parental Ba/F3 cells
Protocol: as §1

[4] = Phase II FIGHT-202, patients; cited from earlier work

Compound | IC50 [1] | IC50 [2] | IC50 [3] | complete responses [4] | disease control rate [4] | objective response rate [4]
CCN1C(=O)N(c2c(F)c(OC)cc(OC)c2F)Cc2cnc3[nH]c(CN4CCOCC4)cc3c21 [pemigatinib] |  | 12 nM | > 5000 nM | 2.8% | 82.0% | 35.5%
